In PubChem BioAssay AID1053141 (Broad Institute, 2014):
Results filed as inconclusive are left out. Calls of active or inactive are those of the source.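 How the source made its calls: active means compounds lowering cell ATP signal, with AC50 no higher than twice their own top valid dose; inconclusive means flat curve with 30 to 70% signal loss, or poor fit; inactive means the rest, including signal rises.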

What was measured:
[1] = tested on: HEK293T viability, CellTiter-Glo ATP luminescence, 72 h; assay: viability loss in HEK293 kidney cells – cell-based, ATP luminescence, dry powder, set 19, cytotoxicity control, dose response (AID 1053141)
[2] = as above; conditions: HEK293T viability, CellTiter-Glo ATP luminescence, 72 h

In the case of CO[C@H]1CN(C)C(=O)c2cc(NC(=O)NC(C)C)ccc2OC[C@H](C)N(Cc2ccccc2)C[C@@H]1C, the AC50 [1] is reported as 44.5 µM.
For CCCC(=O)Nc1ccc2c(c1)OC[C@H](C)N(Cc1ccccc1)C[C@H](C)[C@@H](OC)CN(C)C2=O, the AC50 [1] was > 52 µM (inactive).
With CO[C@H]1CN(C)C(=O)c2cc(Nc3ncccn3)ccc2OC[C@H](C)N(Cc2ccc(-c3ccccn3)cc2)C[C@@H]1C the AC50 [1] was 24.5 µM.
For CCCNC(=O)Nc1ccc2c(c1)OC[C@H](C)N(Cc1ccccc1)C[C@H](C)[C@@H](OC)CN(C)C2=O, the activity change, negative = cytotoxicity ([2]; at 26 µM (top of the series)) was 49.2% (inactive).
With CO[C@H]1CN(C)C(=O)c2ccc(NC(=O)NC(C)C)cc2OC[C@H](C)N(Cc2ccc(-c3ccccn3)cc2)C[C@@H]1C the activity change, negative = cytotoxicity ([2]; at 26 µM (top of the series)) was -6.54% (inactive).
In the case of CO[C@H]1CN(C)C(=O)c2cc(NC(=O)NC(C)C)ccc2OC[C@H](C)N(C(=O)c2ccccc2)C[C@@H]1C, the activity change, negative = cytotoxicity ([2]; at 50 µM (top of the series)) is reported as 13.8% (inactive).
With CO[C@H]1CN(C)C(=O)c2cc(NC(=O)NC(C)C)ccc2OC[C@H](C)NC[C@@H]1C the AC50 [1] was > 100 µM (inactive).
For CO[C@H]1CN(C)C(=O)c2cc(NC(=O)NC(C)C)ccc2OC[C@H](C)N(Cc2ccc(-c3ccncc3)cc2)C[C@@H]1C, the AC50 [1] was 30.7 µM.
Work on CO[C@H]1CN(C)C(=O)c2cc(NC(=O)C(C)C)ccc2OC[C@H](C)N(Cc2ccc(-c3ccccn3)cc2)C[C@@H]1C yielded an AC50 [1] of 52.3 µM.
In the case of CO[C@H]1CN(C)C(=O)c2cc(NC(=O)NC(C)C)ccc2OC[C@H](C)N(C(=O)Nc2ccc(-c3ccccn3)cc2)C[C@@H]1C, the AC50 [1] is reported as > 100 µM (inactive).
For CO[C@H]1CN(C)C(=O)c2cc(NC(=O)NC(C)C)ccc2OC[C@H](C)N(Cc2ccc(F)cc2)C[C@@H]1C, the AC50 [1] was 29.7 µM.
For CO[C@H]1CN(C)C(=O)c2cc(NC(=O)NC(C)C)ccc2OC[C@H](C)N(C(=O)c2ccc(-c3ccccn3)cc2)C[C@@H]1C, the activity change, negative = cytotoxicity ([2]; at 50 µM (top of the series)) was -14% (inactive).
With CO[C@H]1CN(C)C(=O)c2cc(NC(=O)NC(C)C)ccc2OC[C@H](C)N(Cc2cccc(F)c2)C[C@@H]1C the AC50 [1] was 35.8 µM.
CO[C@H]1CN(C)C(=O)c2cc(NC(=O)NC(C)C)ccc2OC[C@H](C)N(Cc2ccc(-c3ccccn3)cc2)C[C@@H]1C showed an AC50 [1] of 27 µM.
With CCCC(=O)Nc1ccc2c(c1)OC[C@H](C)N(Cc1ccc(-c3ccccn3)cc1)C[C@H](C)[C@@H](OC)CN(C)C2=O the activity change, negative = cytotoxicity ([2]; at 26 µM (top of the series)) was 4.89% (inactive).
In the case of CO[C@H]1CN(C)C(=O)c2cc(NC(=O)NC(C)C)ccc2OC[C@H](C)N(Cc2ccccn2)C[C@@H]1C, the activity change, negative = cytotoxicity ([2]; at 50 µM (top of the series)) is reported as 43.7% (inactive).
In the case of CO[C@H]1CN(C)C(=O)c2cc(NC(=O)NC(C)C)ccc2OC[C@H](C)N(Cc2ccncc2)C[C@@H]1C, the activity change, negative = cytotoxicity ([2]; at 50 µM (top of the series)) is reported as -29.6% (inactive).
For CO[C@H]1CN(C)C(=O)c2cc(Nc3c(NC4CC4)c(=O)c3=O)ccc2OC[C@H](C)N(Cc2ccc(-c3ccccn3)cc2)C[C@@H]1C, the AC50 [1] was 15 µM.
Compound CO[C@H]1CN(C)C(=O)c2cc(NC(=O)NC(C)C)ccc2OC[C@H](C)N(Cc2ccccc2F)C[C@@H]1C has an AC50 [1] of 27.4 µM.
In the case of CO[C@H]1CN(C)C(=O)c2cc(NC(=O)NC(C)C)ccc2OC[C@H](C)N(Cc2cccnc2)C[C@@H]1C, the activity change, negative = cytotoxicity ([2]; at 50 µM (top of the series)) is reported as 30.5% (inactive).
In the case of CO[C@H]1CN(C)C(=O)c2cc(NC(=O)NC(C)C)ccc2OC[C@H](C)N(Cc2cncnc2)C[C@@H]1C, the activity change, negative = cytotoxicity ([2]; at 50 µM (top of the series)) is reported as 24.6% (inactive).
In the case of CCCNC(=O)Nc1ccc2c(c1)OC[C@H](C)N(Cc1ccc(-c3ccccn3)cc1)C[C@H](C)[C@@H](OC)CN(C)C2=O, the activity change, negative = cytotoxicity ([2]; at 26 µM (top of the series)) is reported as 12.5% (inactive).
In the case of CO[C@H]1CN(C)C(=O)c2cc(NC(=O)NC(C)C)ccc2OC[C@H](C)N(Cc2ccc(-c3cccnc3)cc2)C[C@@H]1C, the AC50 [1] is reported as 37.7 µM.
For CO[C@H]1CN(C)C(=O)c2cc(Nc3c(NC4CCCC4)c(=O)c3=O)ccc2OC[C@H](C)N(Cc2ccc(-c3ccccn3)cc2)C[C@@H]1C, the AC50 [1] was 13.8 µM.
CCC(CC)Nc1c(Nc2ccc3c(c2)C(=O)N(C)C[C@H](OC)[C@@H](C)CN(Cc2ccc(-c4ccccn4)cc2)[C@@H](C)CO3)c(=O)c1=O showed an AC50 [1] of 39.8 µM.
With CO[C@H]1CN(C)C(=O)c2ccc(NC(=O)NC(C)C)cc2OC[C@H](C)N(Cc2ccccc2)C[C@@H]1C the activity change, negative = cytotoxicity ([2]; at 26 µM (top of the series)) was 94.8% (inactive).
